Results on 10 molecules are retold here after PubChem BioAssay (NCI).

Among the test systems are A549 NSCLC; EKVX NSCLC; HCC-2998 colon; M14 melanoma; MALME-3M melanoma; NCI-H460 lung; OVCAR-8 ovarian; SNB-19 CNS; SNB-75 CNS; SK-OV-3 ovarian.
What all share (test): NCI anticancer screen, dose series, 48 h

SMILES strings stand for the structures.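 The compound was tested at five concentrations on cells cultured in 96-well plates, with a 48-hour exposure period. GI50 = concentration required for 50% inhibition of growth. TGI: concentration producing complete growth inhibition.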

Turning to `O=c1/c(=C/c2ccccc2F)sc2nc3ccccc3n12`, the TGI in the experiment with A549 NSCLC, in the experiment on EKVX NSCLC, with HCC-2998 colon, in the experiment on M14 melanoma, in the experiment with MALME-3M melanoma and in the experiment with NCI-H460 lung was > 100 µM each time. The TGI in the experiment on OVCAR-8 ovarian, in the experiment with SNB-19 CNS and in the experiment with SNB-75 CNS was > 100 µM in each case.
As to `Cc1cc(N(CCCl)CCCl)ccc1C=Nc1ccc(-c2csc(Cc3ccccc3)n2)cc1`, the GI50 is 5.41 µM in the experiment on A549 NSCLC; 14.4 µM in the experiment with HCC-2998 colon; 15.7 µM in the experiment with M14 melanoma; 16.4 µM in the experiment on MALME-3M melanoma; 0.475 µM with NCI-H460 lung; 10.2 µM with OVCAR-8 ovarian. Further, the GI50 in the experiment with SK-OV-3 ovarian is 11.8 µM; with SNB-19 CNS, 16.8 µM; in the experiment on SNB-75 CNS, 3.03 µM. The TGI in the experiment on A549 NSCLC is > 62.4 µM; in the experiment on HCC-2998 colon, 33.3 µM; in the experiment on M14 melanoma it was 58.6 µM; in the experiment with MALME-3M melanoma, 33.2 µM; in the experiment with NCI-H460 lung it was 23.6 µM; in the experiment on OVCAR-8 ovarian, 46.2 µM. Besides, the results for the TGI with SK-OV-3 ovarian, in the experiment on SNB-19 CNS and in the experiment on SNB-75 CNS were 50.1 µM, > 100 µM and 33.5 µM, respectively.
Regarding `Cn1cccc1-c1cc(-c2cccs2)nc(N)c1C#N`, the GI50 in the experiment on A549 NSCLC, in the experiment with EKVX NSCLC, in the experiment with HCC-2998 colon, in the experiment with MALME-3M melanoma, in the experiment on NCI-H460 lung and in the experiment with OVCAR-8 ovarian was > 100 µM each time. Further, the GI50 is > 100 µM in the experiment with SK-OV-3 ovarian, > 100 µM in the experiment with SNB-19 CNS and 46 µM in the experiment on SNB-75 CNS. For the same molecule, the TGI in the experiment with A549 NSCLC, in the experiment on EKVX NSCLC, with HCC-2998 colon, in the experiment with MALME-3M melanoma, in the experiment on NCI-H460 lung and in the experiment on OVCAR-8 ovarian was > 100 µM in each case. Besides, the TGI in the experiment with SK-OV-3 ovarian, in the experiment on SNB-19 CNS and with SNB-75 CNS was > 100 µM throughout.
With `C/C(=N\NS(=O)(=O)c1ccccc1)c1ccc(Cl)c(Cl)c1`, the TGI with A549 NSCLC, with EKVX NSCLC, in the experiment on HCC-2998 colon, in the experiment with M14 melanoma, with MALME-3M melanoma and in the experiment with NCI-H460 lung was > 100 µM in each case. The TGI with OVCAR-8 ovarian, in the experiment on SK-OV-3 ovarian and in the experiment with SNB-75 CNS was > 100 µM throughout.
As to `CCCNC1=C(C(=O)OCC)C(=O)CO1`, the TGI in the experiment on A549 NSCLC, with EKVX NSCLC, with HCC-2998 colon, with M14 melanoma, in the experiment on MALME-3M melanoma and in the experiment on NCI-H460 lung was > 100 µM throughout. In addition, the TGI in the experiment on OVCAR-8 ovarian, with SNB-19 CNS and in the experiment on SNB-75 CNS was > 100 µM throughout.
As for `CC1(C)CC(=O)c2c(C(F)(F)F)nn(-c3ccc(C(N)=O)c(NC4CCC(OC(=O)CN)CC4)c3)c2C1` (stereo not drawn), the GI50 in the experiment on A549 NSCLC is 0.0666 µM; with HCC-2998 colon, 0.195 µM; with M14 melanoma, 0.0608 µM; with MALME-3M melanoma it was 0.0468 µM; in the experiment on NCI-H460 lung it was 0.0502 µM; with OVCAR-8 ovarian it was 0.0593 µM. In addition, the values for the GI50 with SK-OV-3 ovarian, in the experiment on SNB-19 CNS and in the experiment with SNB-75 CNS were 0.0238 µM, 0.142 µM and 0.634 µM, respectively. Moreover, the TGI is 32.8 µM with A549 NSCLC; 13.2 µM in the experiment with HCC-2998 colon; 26.5 µM in the experiment with M14 melanoma; > 100 µM with MALME-3M melanoma; > 100 µM with NCI-H460 lung; > 100 µM with OVCAR-8 ovarian. Also, the TGI with SK-OV-3 ovarian, in the experiment on SNB-19 CNS and in the experiment with SNB-75 CNS was > 100 µM throughout.
In the case of `COc1ccc(-c2nc3sc4c(c3c(=O)[nH]2)CCCCCC4)cc1`, the GI50 with A549 NSCLC was 2.94 µM; with HCC-2998 colon, > 33.2 µM; with M14 melanoma it was 1.48 µM; with MALME-3M melanoma, 3.72 µM; with NCI-H460 lung, 2.26 µM; in the experiment with OVCAR-8 ovarian it was 3.9 µM. For the same molecule, the GI50 in the experiment on SK-OV-3 ovarian was 1.6 µM; in the experiment with SNB-19 CNS it was 4.74 µM; in the experiment with SNB-75 CNS, 2.2 µM. The TGI with A549 NSCLC, with HCC-2998 colon, with M14 melanoma, in the experiment with MALME-3M melanoma, with NCI-H460 lung and with OVCAR-8 ovarian was > 33.2 µM throughout. Further, the TGI is > 33.2 µM in the experiment with SK-OV-3 ovarian, > 33.2 µM in the experiment on SNB-19 CNS and 16.5 µM in the experiment with SNB-75 CNS.
In the case of `CC(CCC(=O)O)[C@H]1CCC2[C@@H]3CC[C@@H]4CC(O)CC[C@]4(C)C3CC[C@@]21C` (stereo partly drawn), the GI50 in the experiment with A549 NSCLC is 25.3 µM; in the experiment on EKVX NSCLC it was 44.4 µM; in the experiment with HCC-2998 colon, 22.2 µM; with M14 melanoma, 30.4 µM; with MALME-3M melanoma, > 100 µM; in the experiment on NCI-H460 lung, 31 µM. The GI50 in the experiment on OVCAR-8 ovarian is 50 µM; with SNB-19 CNS it was 56.5 µM; in the experiment on SNB-75 CNS it was 66.1 µM. Further, the TGI is > 100 µM with A549 NSCLC; > 100 µM in the experiment with EKVX NSCLC; 61 µM with HCC-2998 colon; 97.8 µM in the experiment with M14 melanoma; > 100 µM with MALME-3M melanoma; 97.4 µM in the experiment on NCI-H460 lung. The TGI with OVCAR-8 ovarian, with SNB-19 CNS and with SNB-75 CNS was > 100 µM in each case.
Consider `CCCC(C)c1cc(Cc2cc(Cl)cc(Cl)c2O)c(O)c(Cc2cc(Cl)cc(Cl)c2O)c1` (stereo not drawn), for which the GI50 is 2.19 µM with A549 NSCLC; 1.96 µM in the experiment with EKVX NSCLC; 1.42 µM in the experiment on HCC-2998 colon; 1.63 µM in the experiment on M14 melanoma; 1.77 µM in the experiment with MALME-3M melanoma; 1.02 µM in the experiment on NCI-H460 lung. The GI50 in the experiment on OVCAR-8 ovarian is 0.737 µM; in the experiment with SK-OV-3 ovarian it was 3.36 µM; in the experiment with SNB-75 CNS, 1.86 µM. The TGI was found to be 12.5 µM in the experiment on A549 NSCLC; 11 µM with EKVX NSCLC; 10.5 µM in the experiment on HCC-2998 colon; 7.46 µM with M14 melanoma; 6.75 µM in the experiment with MALME-3M melanoma; 9.34 µM in the experiment with NCI-H460 lung. Further, the results for the TGI in the experiment with OVCAR-8 ovarian, with SK-OV-3 ovarian and in the experiment with SNB-75 CNS were 14.6 µM, 9.23 µM and 7.7 µM, respectively.
For the molecule `Cc1cc(N(CCC#N)CCC#N)ccc1N=Nc1cccc(C(=O)O)c1`, the TGI with A549 NSCLC, in the experiment with EKVX NSCLC, with HCC-2998 colon, with M14 melanoma, in the experiment on MALME-3M melanoma and in the experiment with OVCAR-8 ovarian was > 100 µM in each case. The TGI in the experiment with SK-OV-3 ovarian and with SNB-75 CNS was > 100 µM in each case.
